# Assay results published in patent US20040063661A1, “Treatment of statin side effects” (priority 2000, published 2004).
# Values joined by “and” are separate entries in the source; they are usually repeats but may differ in a detail not shown here. Identical values can stand only once. Marks after values point to notes of the source that are not given here.
# What was measured:
# Format in all cases: in vivo, human
# [1] = tested on: statin induced muscle pain; experiment: Pilot clinical study Q10: McGill Pain Questionnaire (PRI, PPI); conditions: for PRI (Pain Rating Index), first score / PRI (Pain Rating Index), second score: patients on statin therapy; for PRI (Pain Rating Index), first score / PRI (Pain Rating Index), second score / PPI (Present Pain Intensity): one line per patient
# Excerpt: Table 2 outlines data for four patients (numbered #1-#4) undergoing statin therapy for treatment of hypercholesterolemia and who had reported suffering from varying levels of muscular pain and fatigue. This study is ongoing, but the results below follow the study with these four patients from week minus1 (WK(-1)) to week plus 4 (WK(+4)). Patients were either contacted or attended the clinic at weeks -1, 0, +1, +2 and +4. At the clinic on the first week (WK(-1)) details of the patients' statin medication were recorded and daily doses were noted. Patients were also scored for pain using the McGill Pain Questionnaire (Melzack, R., 1975 “The McGill Pain Questionnaire: Major Properties and Scoring Methods”. Pain 1:277-299, the disclosure of which is included herein in its entirety by way of reference) scales for Pain Rating Index (PRI) and Present Pain Intensity (PPI). In the PRI index, which comprises two scores, higher scores indicate increasing levels of pain. In the PPI index present pain is given a score of 0 to 5, where 0 represents no pain and 5 represents excruciating pain. Patients were also scored at WK(-1) for fatigue using the Fatigue Impact Scale (Fisk, J. D. et al, 1994, “Measuring the functional impact of fatigue: Initial Validation of the Fatigue Impact Scale”, Clinical Infectious Disease, 18 (Suppl 1):[…]-83, the disclosure of which is included herein in its entirety by way of reference). Questionnaires to determine PRI, PPI and FIS scores were conducted thereafter at weeks +1, +2 and +4. At weeks +1 and +2 the patients were contacted by telephone and were asked to mail their self assessment questionnaires to the clinic. Commencing at WK(0) and continuing through the study the patients were asked to take a daily dose of 300 mg of Coenzyme Q10 (Q10), which was administered as […] sof gel capsules (commercially available from R. P. Scherer), morning and evening.
# muscle pain = experiment: Case report: Coenzyme Q10 in a patient with unexplained muscle pain and viral infections (Example 1)
# Excerpt: The patient had suffered for a number of years from unexplained muscle pain which started in the legs and gradually spread to other skeletal muscles. During the worst of the symptoms, the patient was unable to raise their arms above their head and was unable to drive a car. Walking was also difficult. […] The patient was eventually diagnosed as suffering from a number of viral infections: cytomegalovirus (CMV), Epstein-Barr virus (EBV) and hepatitis A. The patient was started on a regimen of 150 mg per day of Coenzyme Q10. […] The improvement was reported as permanent provided that the patient kept taking Q10.
# [2] = Pilot clinical study Q10: blood Q10 level (patient compliance); conditions: one line per patient
# Method: (§1) Commencing at WK(0) and continuing through the study the patients were asked to take a daily dose of 300 mg of Coenzyme Q10 (Q10), which was administered as […] sof gel capsules (commercially available from R. P. Scherer), morning and evening.
# creatine kinase = experiment: Pilot clinical study Q10: blood creatine kinase concentration (measure of muscle trauma)
# Method: as §1
# [3] = tested on: serum cholesterol, HDL-cholesterol or LDL-cholesterol and triglyceride levels; experiment: Pilot clinical study Q10: serum lipids levels under statin therapy; conditions: patients #1-#4; 300 mg Q10 daily; WK(0) vs WK(+4)
# Method: as §1
# chronic fatigue syndrome = experiment: Case report: self assessed well being, day to day tasks and muscle pain in a chronic fatigue syndrome patient on Q10 (Example 2); conditions: for Feeling of Well Being / Absence of Muscle Pain / Heavy Work (1 hour) / Light Work/Walking / Sedentary Work / Work: teacher / Wellness Score (out of 60): Q10 2×50 mg per day; for Feeling of Well Being: self rated 0-10 (10 = best); for Absence of Muscle Pain: self rated 0-10 (10 = complete absence of pain); for Wellness Score (out of 60): sum of the six self ratings
# Method: The patient had suffered for a number of years from chronic fatigue syndrome. The condition was severe enough such that they were unable to pursue their teaching career and day to day tasks were generally performed with a general sense of fatigue and muscle pain. Muscle pain was generally controlled with over the counter (ie. non-prescription) analgesics containing 500 mg paracetamol and 8 mg codeine phosphate, 2-4 tablets per day. Table 1 provides a summary of the patient's self assessed levels of general sense of well being, ability to perform day to day tasks and level of (or relative absence of) muscle pain during a dosing regimen of 2×50 mg per day of Q10(50 mg taken each at breakfast and dinner). Levels were rated by the patient on a scale of 0-10, with 0 representing severe incapacity or pain and 10 representing the complete absence of pain or fatigue/excellent performance. FIG. 1 depicts the self assessed (absence of) pain levels for the patient, over a period of 30 days, on a scale of […], where 0 is severe pain and 10 relates to an absence of pain (wellness). On day 1 the patient commenced taking 100 mg of Q10 per day until day 10 when the dosage was increased to 200 mg per day
# [4] = WK(+1), 300 mg Q10 daily from WK(0)
# [5] = WK(+2), 300 mg Q10 daily from WK(0)
# [6] = WK(+4), 300 mg Q10 daily from WK(0)
# [7] = 150 mg per day of Coenzyme Q10, within several days
# [8] = Day 1, self rated 0-10 (10 = excellent performance)
# [9] = Day 2, self rated 0-10 (10 = excellent performance)
# [10] = Day 3, self rated 0-10 (10 = excellent performance)
# [11] = Day 4, self rated 0-10 (10 = excellent performance)
# [12] = Day 5, self rated 0-10 (10 = excellent performance)
# [13] = Week 2, self rated 0-10 (10 = excellent performance)
# [14] = Week 12, self rated 0-10 (10 = excellent performance)
structure (smiles),measurement,setting,value
"COC1=C(OC)C(=O)C(C/C=C(\C)CC/C=C(\C)CC/C=C(\C)CC/C=C(\C)CC/C=C(\C)CC/C=C(\C)CC/C=C(\C)CC/C=C(\C)CC/C=C(\C)CCC=C(C)C)=C(C)C1=O [Q10, Coenzyme Q10]",change in PRI scores (overall statement),"[1]; 300 mg Q10 daily to WK(+4), a few patients",Marginal decreases
same,"PRI (Pain Rating Index), first score",[1]; [4],22 and 0 and 48 and 19
same,"PRI (Pain Rating Index), second score",[1]; [4],10 and 0 and 21 and 7
same,PPI (Present Pain Intensity),"[1]; WK(+1), 300 mg Q10 daily from WK(0), score 0 to 5",2 and 0 and 3 and 1
same,"PRI (Pain Rating Index), first score",[1]; [5],25 and 9 and 54 and 10
same,"PRI (Pain Rating Index), second score",[1]; [5],11 and 6 (2×) and 23
same,PPI (Present Pain Intensity),"[1]; WK(+2), 300 mg Q10 daily from WK(0), score 0 to 5",2 (3×) and 1
same,"PRI (Pain Rating Index), first score",[1]; [6],8 and 4 and 46 and 9
same,"PRI (Pain Rating Index), second score",[1]; [6],4 and 1 and 20 and 5
same,PPI (Present Pain Intensity),"[1]; WK(+4), 300 mg Q10 daily from WK(0), score 0 to 5",2 (3×) and 1
same,"PRI (Pain Rating Index), first score","[1]; WK(−1), baseline before Q10",15 and 10 and 69 and 12
same,"PRI (Pain Rating Index), second score","[1]; WK(−1), baseline before Q10",5 (2×) and 3 and 30
same,PPI (Present Pain Intensity),"[1]; WK(−1), baseline before Q10, score 0 to 5 (5 = excruciating pain)",2
same,general sense of well being (patient report),muscle pain; [7],general sense of well being has improved
same,muscle pain (patient report),muscle pain; [7],muscle pain had subsided noticeably
same,pain after the patient recommenced the Q10 treatment,muscle pain; treatment recommenced,the pain diminished within a short period
same,muscle pain after the patient stopped taking the Q10,muscle pain; treatment stopped on one occasion,the muscle pain returned
same,Q10 (blood level),"[2]; WK(0), baseline before Q10",0.59 µg/mL and 0.46 µg/mL and 1.39 µg/mL
same,Q10 (blood level),[2]; [6],2.42 µg/mL and 2.49 µg/mL and 1.92 µg/mL and 2.22 µg/mL
same,CK (creatine kinase concentration),"creatine kinase; WK(0), baseline before Q10, normal range 0-200, one line per patient",175 units/L and 69 units/L and 39 units/L and 160 units/L
same,CK (creatine kinase concentration),"creatine kinase; WK(+4), 300 mg Q10 daily from WK(0), normal range 0-200, one line per patient",127 units/L and 78 units/L and 32 units/L and 148 units/L
same,"effect on statin therapy with respect to serum cholesterol, HDL-cholesterol or LDL-cholesterol and triglyceride levels",[3],did not significantly affect statin therapy
same,"self assessed (absence of) pain levels, FIG. 1","chronic fatigue syndrome; 30 day period, 100 mg of Q10 per day from day 1, 200 mg per day from day 10",increasing absence of muscle pain
same,Feeling of Well Being,chronic fatigue syndrome; Day 1,4
same,Absence of Muscle Pain,"chronic fatigue syndrome; Day 1, patient required 2x analgesic tablets",3*
same,Heavy Work (1 hour),chronic fatigue syndrome; [8],0
same,Light Work/Walking,chronic fatigue syndrome; [8],4
same,Sedentary Work,chronic fatigue syndrome; [8],3
same,Work: teacher,chronic fatigue syndrome; [8],0
same,Wellness Score (out of 60),chronic fatigue syndrome; Day 1,14
same,Feeling of Well Being,chronic fatigue syndrome; Day 2,4
same,Absence of Muscle Pain,"chronic fatigue syndrome; Day 2, patient required 2 × 2 (4) analgesic tablets",3**
same,Heavy Work (1 hour),chronic fatigue syndrome; [9],0
same,Light Work/Walking,chronic fatigue syndrome; [9],4
same,Sedentary Work,chronic fatigue syndrome; [9],3
same,Work: teacher,chronic fatigue syndrome; [9],0
same,Wellness Score (out of 60),chronic fatigue syndrome; Day 2,14
same,Feeling of Well Being,chronic fatigue syndrome; Day 3,5
same,Absence of Muscle Pain,chronic fatigue syndrome; Day 3,7
same,Light Work/Walking,chronic fatigue syndrome; [10],6
same,Sedentary Work,chronic fatigue syndrome; [10],4
same,Work: teacher,chronic fatigue syndrome; [10],0
same,Heavy Work (1 hour),"chronic fatigue syndrome; Day 3, self rated 0-10, patient performed only ½ hour heavy work",3***
same,Wellness Score (out of 60),chronic fatigue syndrome; Day 3,25
same,Feeling of Well Being,chronic fatigue syndrome; Day 4,6
same,Absence of Muscle Pain,chronic fatigue syndrome; Day 4,7
same,Light Work/Walking,chronic fatigue syndrome; [11],6
same,Sedentary Work,chronic fatigue syndrome; [11],5
same,Work: teacher,chronic fatigue syndrome; [11],0
same,Heavy Work (1 hour),"chronic fatigue syndrome; Day 4, self rated 0-10, patient performed only ½ hour heavy work",3***
same,Wellness Score (out of 60),chronic fatigue syndrome; Day 4,27
same,Feeling of Well Being,chronic fatigue syndrome; Day 5,7
same,Absence of Muscle Pain,chronic fatigue syndrome; Day 5,7
same,Light Work/Walking,chronic fatigue syndrome; [12],7
same,Sedentary Work,chronic fatigue syndrome; [12],6
same,Work: teacher,chronic fatigue syndrome; [12],0
same,Heavy Work (1 hour),"chronic fatigue syndrome; Day 5, self rated 0-10, patient performed only ½ hour heavy work",3***
same,Wellness Score (out of 60),chronic fatigue syndrome; Day 5,30
same,Feeling of Well Being,chronic fatigue syndrome; Week 2,7
same,Absence of Muscle Pain,chronic fatigue syndrome; Week 2,7
same,Heavy Work (1 hour),chronic fatigue syndrome; [13],5
same,Light Work/Walking,chronic fatigue syndrome; [13],7
same,Sedentary Work,chronic fatigue syndrome; [13],7
same,Work: teacher,chronic fatigue syndrome; [13],3
same,Wellness Score (out of 60),chronic fatigue syndrome; Week 2,36
same,Feeling of Well Being,chronic fatigue syndrome; Week 12,9
same,Absence of Muscle Pain,chronic fatigue syndrome; Week 12,9
same,Heavy Work (1 hour),chronic fatigue syndrome; [14],8
same,Light Work/Walking,chronic fatigue syndrome; [14],9
same,Sedentary Work,chronic fatigue syndrome; [14],9
same,Work: teacher,chronic fatigue syndrome; [14],8
same,Wellness Score (out of 60),chronic fatigue syndrome; Week 12,52
